Results reported in ChEMBL document CHEMBL1201862, “PubChem BioAssay data set” (2004).
Calls of active or inactive are those of the source.

Tests used:
NADPH oxidase 1 = NADPH oxidase 1 (Homo sapiens, UniProt Q9Y5S8); assay: Late-stage luminescence-based cell-based dose response assay to identify inhibitors of NADPH oxidase 1 (NOX1): Purchased analogs 2.; format: functional
[1] = target: Muscarinic acetylcholine receptor M1 (Rattus norvegicus, UniProt P08482); assay: rat M1 positive allosteric modulator potency, dose response, cell-based, calcium mobilization, CHO-K1, ACh EC20 (AID 2425); format: functional
Aspartyl aminopeptidase [2] = target: T1, Aspartyl aminopeptidase (Plasmodium falciparum 3D7, UniProt Q8I2J3)
T1 sequence (Q8I2J3 whole entry): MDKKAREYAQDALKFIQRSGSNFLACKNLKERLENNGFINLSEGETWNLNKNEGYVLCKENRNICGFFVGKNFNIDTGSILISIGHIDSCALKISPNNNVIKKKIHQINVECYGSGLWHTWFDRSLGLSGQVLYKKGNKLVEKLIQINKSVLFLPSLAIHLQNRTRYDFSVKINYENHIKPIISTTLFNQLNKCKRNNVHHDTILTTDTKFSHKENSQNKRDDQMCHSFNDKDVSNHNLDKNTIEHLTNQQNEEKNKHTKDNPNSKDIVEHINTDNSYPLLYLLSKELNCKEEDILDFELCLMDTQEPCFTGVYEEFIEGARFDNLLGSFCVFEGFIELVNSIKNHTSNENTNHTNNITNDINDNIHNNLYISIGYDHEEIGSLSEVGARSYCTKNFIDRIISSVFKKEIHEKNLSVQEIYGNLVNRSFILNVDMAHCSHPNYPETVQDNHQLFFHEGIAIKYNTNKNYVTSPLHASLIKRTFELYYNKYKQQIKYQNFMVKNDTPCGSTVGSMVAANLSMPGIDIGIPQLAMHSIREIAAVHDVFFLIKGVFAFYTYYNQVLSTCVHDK

Procathepsin L [3] = target: T2, Procathepsin L (Homo sapiens, UniProt P07711)
Paired box protein Pax-8 = Paired box protein Pax-8 (Homo sapiens, UniProt Q06710); assay: inhibitors of PAX8-driven TPO luciferase reporter, dose response, RMG-I cells, cherry-pick (AID 687027); format: functional, cell-based;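 note: luciferase reporter driven by Pax8 target thyroperoxidase promoter measured by SteadyGlo luminescence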
[4] = target: T3, Microphthalmia-associated transcription factor (Homo sapiens, UniProt O75030); assay: TRPM1 promoter luciferase signal decrease, dose response, MITF inhibitor project, cell-based, SK-MEL-5, cherry-picked, set 3 (AID 493073); format: functional
T3 sequence (O75030 whole entry): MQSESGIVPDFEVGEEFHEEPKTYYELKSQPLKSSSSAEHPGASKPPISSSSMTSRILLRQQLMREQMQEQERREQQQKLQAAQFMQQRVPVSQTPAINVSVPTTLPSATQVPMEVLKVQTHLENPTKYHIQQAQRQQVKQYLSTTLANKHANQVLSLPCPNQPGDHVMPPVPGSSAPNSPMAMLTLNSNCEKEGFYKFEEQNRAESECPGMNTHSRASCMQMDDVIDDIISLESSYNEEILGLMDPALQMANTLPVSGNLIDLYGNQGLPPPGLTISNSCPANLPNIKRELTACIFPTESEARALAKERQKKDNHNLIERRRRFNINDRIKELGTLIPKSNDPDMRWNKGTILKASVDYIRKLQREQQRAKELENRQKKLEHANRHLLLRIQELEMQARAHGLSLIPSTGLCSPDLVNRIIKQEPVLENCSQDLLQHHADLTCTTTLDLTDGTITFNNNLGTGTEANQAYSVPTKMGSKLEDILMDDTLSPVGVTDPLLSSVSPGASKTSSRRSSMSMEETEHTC

[5] = C. albicans growth with fluconazole, confirmation, fluorescence, retest (AID 2467); format: functional, cell-based
Vero [6] = assay: host cell cytotoxicity of antiviral hits, dose response, cytotoxicity control for West Nile virus antiviral project, secondary assay (AID 1650); format: functional; details: Chlorocebus sabaeus
[7] = NIH-3T3 fibroblast cytotoxicity, dose response, cytotoxicity control, cell-based, fluorescence, Alamar Blue, secondary assay (AID 2327); format: functional;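 note: NIH-3T3 mouse fibroblasts cultured with fluconazole at 8 µg/mL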
Vero [8] = assay: West Nile virus antiviral activity, cell-based, CPE readout (AID 1621); format: functional; details: Chlorocebus sabaeus
[9] = cytotoxicity in HPDE-C7 cells, cell-based, fluorescence, HTS (AID 430); format: functional; details: Homo sapiens
[10] = cytotoxicity in KRAS-transformed pancreatic duct cells, primary screen, cell-based, fluorescence, HTS (AID 431); format: functional; details: Homo sapiens;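 note: cell line used: HPDE-C7K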
Leucine aminopeptidase = target: T4, Leucine aminopeptidase (Plasmodium falciparum 3D7, UniProt Q8IL11); assay: P. falciparum M17LAP inhibitors, primary screen, biochemical, fluorogenic H-Leu-NHMec substrate, 1536-well (AID 1619); format: functional
T4 sequence (Q8IL11 whole entry): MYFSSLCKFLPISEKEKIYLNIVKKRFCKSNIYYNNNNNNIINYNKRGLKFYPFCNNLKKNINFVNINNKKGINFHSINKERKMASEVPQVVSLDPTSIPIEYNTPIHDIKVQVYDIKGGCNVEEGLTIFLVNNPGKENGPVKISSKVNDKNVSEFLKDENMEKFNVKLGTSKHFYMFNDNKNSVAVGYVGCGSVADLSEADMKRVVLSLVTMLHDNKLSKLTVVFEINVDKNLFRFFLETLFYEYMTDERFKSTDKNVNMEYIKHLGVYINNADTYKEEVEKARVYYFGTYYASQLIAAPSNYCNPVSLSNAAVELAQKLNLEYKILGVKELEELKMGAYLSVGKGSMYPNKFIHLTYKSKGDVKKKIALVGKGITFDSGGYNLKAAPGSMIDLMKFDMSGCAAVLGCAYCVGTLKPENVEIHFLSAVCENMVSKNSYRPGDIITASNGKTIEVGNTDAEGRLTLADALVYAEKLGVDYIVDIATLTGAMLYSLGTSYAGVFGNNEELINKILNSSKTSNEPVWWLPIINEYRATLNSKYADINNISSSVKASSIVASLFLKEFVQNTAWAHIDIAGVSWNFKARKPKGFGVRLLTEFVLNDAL

Procathepsin L [11] = target: T2, Procathepsin L; assay: cathepsin L inhibitors, dose response, counter-screen for M1/M17 aminopeptidase inhibitor project, biochemical, QFRET, 1536-well (AID 2214)
Aspartyl aminopeptidase [12] = target: T1, Aspartyl aminopeptidase; assay: Counterscreen for inhibitors of M1 and M17 aminopeptidases: QFRET-based biochemical high throughput dose response assay for inhibitors of the Plasmodium falciparum M18 Aspartyl Aminopeptidase (PFM18AAP). [Related PubChem assays: 1619 (Screening assay (M17LAP inhibitors).), 1445 (Screening assay (M1AAP inhibitors).)]
[13] = target: T5, Heat shock factor protein 1 (Mus musculus, UniProt P38532); assay: HSF1 potentiators in luciferase reporter cells, confirmation, cell-based, NIH3T3, luminescence, dose retest (AID 435004); format: functional;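 note: stress induced by proteasome inhibitor MG132 added 30 min after compound; luciferase reporter driven by HSF1 response element in NIH3T3 cells; actives raise luminescence as potentiators of the MG132 stress response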
T5 sequence (P38532 whole entry): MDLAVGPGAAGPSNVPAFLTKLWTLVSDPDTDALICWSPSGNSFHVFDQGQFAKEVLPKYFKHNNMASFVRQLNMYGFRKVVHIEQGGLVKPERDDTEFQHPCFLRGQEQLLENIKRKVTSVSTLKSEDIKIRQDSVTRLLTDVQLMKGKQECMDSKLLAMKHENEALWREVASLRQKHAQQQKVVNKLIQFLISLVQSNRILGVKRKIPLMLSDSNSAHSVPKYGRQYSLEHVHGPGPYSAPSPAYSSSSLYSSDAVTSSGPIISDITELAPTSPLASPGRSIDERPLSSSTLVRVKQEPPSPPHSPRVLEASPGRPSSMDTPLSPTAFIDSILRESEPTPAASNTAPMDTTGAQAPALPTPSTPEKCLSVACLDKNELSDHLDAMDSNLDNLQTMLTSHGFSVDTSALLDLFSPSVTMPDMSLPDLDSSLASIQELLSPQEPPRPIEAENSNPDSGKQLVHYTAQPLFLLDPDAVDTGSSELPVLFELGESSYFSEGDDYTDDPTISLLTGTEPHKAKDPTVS

[14] = target: T5, Heat shock factor protein 1; assay: inhibition of MG132-induced HSE-luciferase signal, confirmation, cell-based, NIH3T3, luminescence, dose retest (AID 2382); format: functional;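 note: NIH3T3 fibroblasts with HSF1-driven luciferase reporter stressed by proteasome inhibitor MG132; luminescence from HSF1-driven luciferase expression after 8 hours of MG132 stress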
[15] = target: Photoreceptor-specific nuclear receptor (Homo sapiens, UniProt Q9Y5X4); assay: NR2E3 inverse agonists, dose response, biochemical, TR-FRET (AID 463256); format: functional
[16] = target: Peroxisome proliferator-activated receptor gamma/Nuclear receptor corepressor 2 (Homo sapiens, UniProt P37231+Q9Y618); assay: Counterscreen for NR2E3 inverse agonists: TR-FRET-based biochemical high throughput dose response assay to identify inverse agonists of the interaction between peroxisome proliferator-activated receptor gamma (PPARg) and nuclear receptor co-repressor 2 (NCOR2).; format: functional
Cytochrome P450 2C19 = Cytochrome P450 2C19 (Homo sapiens, UniProt P33261); assay: qHTS Assay for Inhibitors and Substrates of Cytochrome P450 2C19. [Related pubchem assays: 410 ]; format: ADME; details: read-out: Potency
[17] = cytotoxicity toward DRD oncogenic fibroblasts, dose response, cell-based, non-viral oncogenic, luminescence (AID 1934); format: functional; details: Homo sapiens
Nonstructural protein 1 = Nonstructural protein 1 (Influenza A virus, UniProt Q194T2); format: functional, Influenza A virus (A/California/07/2009(H1N1))
[18] = Luminescence-based dose response cell-based high throughput screening assay for cytotoxic compounds using the IEC-6 intestinal epithelial cell line. [Related pubchem assays: 1858 (Summary AID.), 1825 (Counterscreen.), 1907 (Confirmation screen.)]; format: functional
BJ [19] = assay: cytotoxicity toward BJ-TERT fibroblasts, dose response, cell-based, RAS-independent, luminescence (AID 1933); format: functional; details: Homo sapiens
BJ [20] = assay: cytotoxicity toward Ras-transformed BJeLR fibroblasts, dose response, cell-based, alamar blue fluorescence, cherrypicked samples (AID 2631); format: functional; details: Homo sapiens;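 note: confirmatory dose-response assay in RAS-dependent BJ fibroblasts engineered with TERT, LT and ST, with cytotoxicity read by fluorescence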
BJ [21] = assay: cytotoxicity toward BJ-TERT-LT-ST fibroblasts, dose response, cell-based, RAS-independent, luminescence (AID 1935); format: functional; details: Homo sapiens;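 note: BJ fibroblasts immortalized with TERT plus LT and ST oncogenes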
Vero [22] = assay: cells; format: functional; details: Chlorocebus sabaeus
[23] = HepG2 cell cytotoxicity, dose response, cytotoxicity control for non-replicating M. tuberculosis project (AID 489018); format: functional; details: Mycobacterium tuberculosis
[24] = Vero E6 cell cytotoxicity, dose response, cytotoxicity control for non-replicating M. tuberculosis project, secondary assay (AID 492998); format: functional, VeroE6; details: Vero C1008
BJ [25] = assay: cells; format: functional, cell-based; details: Homo sapiens
[26] = THP-1 cell cytotoxicity, dose response, cytotoxicity control for non-replicating M. tuberculosis project (AID 489025); format: functional
cells = format: functional
INS1 = assay: beta cell apoptosis inhibitors, cytokine rescue, dose response, luminescence, retest (AID 449756); format: functional, cell-based; details: Rattus norvegicus;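 note: cell death triggered by IL-1 beta plus TNF-alpha plus IFN-gamma mixture; protective hits raise ATP signal compared with cytokine alone wells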
Vero [27] = assay: cells; format: functional, cell-based; details: Chlorocebus sabaeus
Bcl-2-related protein A1 [28] = target: T6, Bcl-2-related protein A1 (Mus musculus, UniProt Q07440); assay: Bfl-1 inhibitors blocking BH3 peptide binding, confirmation, biochemical, TR-FRET, mouse Bfl-1 (AID 621);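 note: TR-FRET binding of GST-Bfl-1 to FITC-labelled Bid peptide via terbium antibody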
T6 sequence (Q07440 whole entry): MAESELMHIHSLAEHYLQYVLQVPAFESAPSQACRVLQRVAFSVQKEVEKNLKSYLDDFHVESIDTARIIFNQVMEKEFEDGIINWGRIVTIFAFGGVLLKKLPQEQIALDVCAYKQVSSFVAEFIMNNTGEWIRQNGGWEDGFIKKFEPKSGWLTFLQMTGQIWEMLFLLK

Bcl-2-related protein A1 [29] = target: T6, Bcl-2-related protein A1; assay: Bfl-1 inhibitors, primary screen, biochemical, fluorescence polarization, FITC-Bid, mouse (AID 432)

T2 sequence (P07711 whole entry): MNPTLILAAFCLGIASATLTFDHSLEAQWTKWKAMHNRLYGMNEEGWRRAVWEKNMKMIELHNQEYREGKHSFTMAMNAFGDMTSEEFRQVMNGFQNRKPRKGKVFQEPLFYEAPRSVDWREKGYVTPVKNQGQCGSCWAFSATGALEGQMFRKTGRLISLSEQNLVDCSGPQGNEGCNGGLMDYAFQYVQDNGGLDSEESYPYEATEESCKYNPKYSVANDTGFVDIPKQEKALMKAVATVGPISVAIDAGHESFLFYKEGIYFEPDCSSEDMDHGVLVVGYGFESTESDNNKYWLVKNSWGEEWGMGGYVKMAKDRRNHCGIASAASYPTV
Peroxisome proliferator-activated receptor gamma/Nuclear receptor corepressor 2, sequence (P37231 whole entry): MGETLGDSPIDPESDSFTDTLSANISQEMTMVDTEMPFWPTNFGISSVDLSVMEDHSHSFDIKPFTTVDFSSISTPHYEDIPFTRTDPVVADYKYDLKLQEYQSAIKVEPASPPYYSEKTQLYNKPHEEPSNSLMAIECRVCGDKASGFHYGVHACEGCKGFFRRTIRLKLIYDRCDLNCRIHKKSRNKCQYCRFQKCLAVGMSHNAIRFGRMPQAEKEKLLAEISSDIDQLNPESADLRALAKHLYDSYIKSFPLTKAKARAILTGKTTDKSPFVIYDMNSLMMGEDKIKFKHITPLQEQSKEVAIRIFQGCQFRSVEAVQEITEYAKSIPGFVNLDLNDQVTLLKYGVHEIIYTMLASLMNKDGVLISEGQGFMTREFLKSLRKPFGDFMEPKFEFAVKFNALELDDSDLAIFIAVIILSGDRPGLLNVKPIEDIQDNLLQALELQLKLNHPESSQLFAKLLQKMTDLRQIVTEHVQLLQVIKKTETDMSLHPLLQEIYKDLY
Peroxisome proliferator-activated receptor gamma/Nuclear receptor corepressor 2, sequence (Q9Y618 whole entry): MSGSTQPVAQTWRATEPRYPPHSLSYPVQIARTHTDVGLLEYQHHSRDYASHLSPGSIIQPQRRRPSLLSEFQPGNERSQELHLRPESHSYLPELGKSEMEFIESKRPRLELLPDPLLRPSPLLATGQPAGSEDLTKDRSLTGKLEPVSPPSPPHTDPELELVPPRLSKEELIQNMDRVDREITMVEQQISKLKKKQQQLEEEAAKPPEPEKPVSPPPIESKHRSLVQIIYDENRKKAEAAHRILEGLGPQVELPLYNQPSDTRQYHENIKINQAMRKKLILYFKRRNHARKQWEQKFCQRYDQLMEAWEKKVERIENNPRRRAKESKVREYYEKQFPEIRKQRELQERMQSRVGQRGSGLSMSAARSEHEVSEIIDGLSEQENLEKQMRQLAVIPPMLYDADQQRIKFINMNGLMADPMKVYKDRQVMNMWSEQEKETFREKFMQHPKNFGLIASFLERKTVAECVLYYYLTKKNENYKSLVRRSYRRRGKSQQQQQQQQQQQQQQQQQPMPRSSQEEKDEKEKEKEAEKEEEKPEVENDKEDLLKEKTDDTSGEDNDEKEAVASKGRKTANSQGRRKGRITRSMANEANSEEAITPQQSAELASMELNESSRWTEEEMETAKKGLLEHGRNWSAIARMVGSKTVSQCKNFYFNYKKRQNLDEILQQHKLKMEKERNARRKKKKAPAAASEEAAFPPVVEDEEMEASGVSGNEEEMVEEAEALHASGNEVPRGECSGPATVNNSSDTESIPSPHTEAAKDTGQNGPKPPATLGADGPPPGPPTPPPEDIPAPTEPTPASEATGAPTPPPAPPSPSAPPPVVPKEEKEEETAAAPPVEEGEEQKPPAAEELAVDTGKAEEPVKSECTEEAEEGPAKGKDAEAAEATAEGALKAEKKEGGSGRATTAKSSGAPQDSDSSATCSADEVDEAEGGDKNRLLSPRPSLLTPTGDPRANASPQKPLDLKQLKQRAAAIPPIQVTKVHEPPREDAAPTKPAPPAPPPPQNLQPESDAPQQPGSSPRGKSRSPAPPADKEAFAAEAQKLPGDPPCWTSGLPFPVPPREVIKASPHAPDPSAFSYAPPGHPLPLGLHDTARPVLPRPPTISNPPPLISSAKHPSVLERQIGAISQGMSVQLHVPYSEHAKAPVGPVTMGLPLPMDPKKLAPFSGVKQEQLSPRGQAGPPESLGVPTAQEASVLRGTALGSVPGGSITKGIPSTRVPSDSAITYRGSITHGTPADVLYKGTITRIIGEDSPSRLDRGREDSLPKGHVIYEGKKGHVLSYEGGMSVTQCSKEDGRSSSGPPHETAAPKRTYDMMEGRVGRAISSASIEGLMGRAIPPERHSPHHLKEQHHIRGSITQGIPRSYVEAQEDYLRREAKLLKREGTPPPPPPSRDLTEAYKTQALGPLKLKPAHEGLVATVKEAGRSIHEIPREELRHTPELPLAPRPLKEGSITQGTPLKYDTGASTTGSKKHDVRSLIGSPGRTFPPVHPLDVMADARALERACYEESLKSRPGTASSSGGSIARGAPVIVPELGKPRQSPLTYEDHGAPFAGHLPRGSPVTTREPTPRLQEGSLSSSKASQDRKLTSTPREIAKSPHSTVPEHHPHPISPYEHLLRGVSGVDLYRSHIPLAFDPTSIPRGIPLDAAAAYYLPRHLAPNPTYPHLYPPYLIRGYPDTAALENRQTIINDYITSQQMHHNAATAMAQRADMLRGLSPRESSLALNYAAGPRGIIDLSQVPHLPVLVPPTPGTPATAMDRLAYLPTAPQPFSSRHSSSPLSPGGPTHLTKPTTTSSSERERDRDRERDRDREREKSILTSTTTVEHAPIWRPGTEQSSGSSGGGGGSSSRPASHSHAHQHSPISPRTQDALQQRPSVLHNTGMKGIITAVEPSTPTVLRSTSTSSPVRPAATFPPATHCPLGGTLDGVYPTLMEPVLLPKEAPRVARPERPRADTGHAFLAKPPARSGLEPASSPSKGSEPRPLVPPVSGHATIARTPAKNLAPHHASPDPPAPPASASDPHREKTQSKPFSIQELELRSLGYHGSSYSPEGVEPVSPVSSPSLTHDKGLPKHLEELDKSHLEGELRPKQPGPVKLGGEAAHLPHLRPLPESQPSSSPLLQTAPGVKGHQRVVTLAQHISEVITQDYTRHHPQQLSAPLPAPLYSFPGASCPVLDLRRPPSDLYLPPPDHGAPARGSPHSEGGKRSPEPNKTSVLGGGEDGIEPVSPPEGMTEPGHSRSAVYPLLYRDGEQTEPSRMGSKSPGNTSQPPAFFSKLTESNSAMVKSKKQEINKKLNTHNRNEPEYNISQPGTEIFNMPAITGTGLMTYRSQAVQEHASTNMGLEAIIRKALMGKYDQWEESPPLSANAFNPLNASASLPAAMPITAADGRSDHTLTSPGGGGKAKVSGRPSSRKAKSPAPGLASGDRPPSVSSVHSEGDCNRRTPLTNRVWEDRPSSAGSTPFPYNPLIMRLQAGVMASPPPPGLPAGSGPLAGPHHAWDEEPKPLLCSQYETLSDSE
Muscarinic acetylcholine receptor M1, sequence (P08482 whole entry): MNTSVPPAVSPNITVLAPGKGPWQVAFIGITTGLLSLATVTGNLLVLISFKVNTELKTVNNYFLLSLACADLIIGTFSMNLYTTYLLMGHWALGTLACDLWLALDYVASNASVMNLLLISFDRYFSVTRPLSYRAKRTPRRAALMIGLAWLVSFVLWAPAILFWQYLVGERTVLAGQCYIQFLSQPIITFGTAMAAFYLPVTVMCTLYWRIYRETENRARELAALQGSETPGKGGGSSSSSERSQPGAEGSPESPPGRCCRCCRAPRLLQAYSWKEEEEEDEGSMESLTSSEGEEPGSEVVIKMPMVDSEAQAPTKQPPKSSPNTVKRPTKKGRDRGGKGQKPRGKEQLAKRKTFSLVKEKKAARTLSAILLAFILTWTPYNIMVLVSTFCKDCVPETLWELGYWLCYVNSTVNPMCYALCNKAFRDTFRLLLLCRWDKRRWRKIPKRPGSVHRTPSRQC
NADPH oxidase 1, sequence (Q9Y5S8 whole entry): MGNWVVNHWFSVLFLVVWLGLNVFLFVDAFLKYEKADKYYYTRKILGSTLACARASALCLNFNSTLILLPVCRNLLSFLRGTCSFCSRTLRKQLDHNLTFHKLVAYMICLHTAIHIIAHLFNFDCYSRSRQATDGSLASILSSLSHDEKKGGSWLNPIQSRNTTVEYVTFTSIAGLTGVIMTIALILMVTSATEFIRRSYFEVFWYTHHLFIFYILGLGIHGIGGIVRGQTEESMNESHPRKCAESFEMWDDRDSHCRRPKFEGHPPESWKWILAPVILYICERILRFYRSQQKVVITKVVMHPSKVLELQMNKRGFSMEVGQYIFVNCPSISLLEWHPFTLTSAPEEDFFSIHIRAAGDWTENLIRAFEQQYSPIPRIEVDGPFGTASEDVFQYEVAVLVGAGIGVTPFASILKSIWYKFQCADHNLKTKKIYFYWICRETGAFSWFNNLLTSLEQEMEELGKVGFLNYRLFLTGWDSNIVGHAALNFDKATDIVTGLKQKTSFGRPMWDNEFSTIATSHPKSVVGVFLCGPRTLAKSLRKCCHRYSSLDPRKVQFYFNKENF
Cytochrome P450 2C19, sequence (P33261 whole entry): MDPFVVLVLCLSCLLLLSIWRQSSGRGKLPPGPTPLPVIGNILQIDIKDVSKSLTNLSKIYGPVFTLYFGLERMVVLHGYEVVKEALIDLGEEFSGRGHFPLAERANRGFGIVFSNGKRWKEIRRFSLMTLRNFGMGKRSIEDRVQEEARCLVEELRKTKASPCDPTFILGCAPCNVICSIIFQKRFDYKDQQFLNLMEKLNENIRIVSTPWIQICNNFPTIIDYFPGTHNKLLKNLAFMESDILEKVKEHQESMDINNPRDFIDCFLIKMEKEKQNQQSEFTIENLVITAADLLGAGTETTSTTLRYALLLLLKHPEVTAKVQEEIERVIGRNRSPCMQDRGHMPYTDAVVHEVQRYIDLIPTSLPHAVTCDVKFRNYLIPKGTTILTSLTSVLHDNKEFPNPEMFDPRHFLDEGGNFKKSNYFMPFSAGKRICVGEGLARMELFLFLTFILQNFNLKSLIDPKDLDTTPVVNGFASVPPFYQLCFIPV

Compound: C=C(NNc1c(F)c(F)nc(F)c1F)c1ccc(-n2cncn2)cc1
- IC50 (NADPH oxidase 1): > 17 µM (not active)

Compound: Cc1cc(NC(=O)CS(=O)(=O)c2cn(Cc3cccc(F)c3)c3ccccc23)no1
- EC50 [1]: 5.32 µM (active)

Compound: BrC(=C\c1ccccc1)/C=N/n1cnnc1
- IC50 (Aspartyl aminopeptidase [2]): 1.89 µM (active)
- IC50 (Procathepsin L [3]): > 59.6 µM (not active)
- AC50 (Paired box protein Pax-8): 3.84 µM (active)
- AC50 [4]: 7.26 µM (active)
- EC50 [5]: 1.01 µM (active)
- CC50 (Vero [6]): 6.4 µM (active)
- EC50 [7]: > 150 µM (inconclusive)
- IC50 (Vero [8]): 39.2 µM (active)

Compound: O=S(=O)(c1ccc(Cl)c(Cl)c1)N1CCc2nc3ccccc3n2CC1
- EC50 [9]: 490 nM (active)
- EC50 [10]: > 20 µM (not active)

Compound: O=C(CSc1nc(O)cc(=O)n1-c1ccccc1)Nc1ccc2c3c(cccc13)CC2
- IC50 (Leucine aminopeptidase): 1.45 µM (active)
- IC50 (Procathepsin L [11]): > 59.6 µM (not active)
- IC50 (Aspartyl aminopeptidase [12]): > 73.5 µM (not active)
- EC50 [13]: > 260 µM (inactive)

Compound: O=C(CCCCCn1c(=S)[nH]c2cc3c(cc2c1=O)OCO3)N1CCN(C(=O)c2ccco2)CC1
- EC50 [14]: > 195 µM (not active)
- IC50 [15]: 3.68 µM (active)
- IC50 [16]: > 39.8 µM (not active)

Compound: O=c1cc(-c2ccc(O)cc2O)oc2ccccc12
- AC50 (Cytochrome P450 2C19): 6.31 µM (inconclusive)

Compound: COc1ccc(C(=O)N/N=C(\C)c2ccccn2)cc1OC
- EC50 [17]: 5.69 µM (active)
- IC50 (Nonstructural protein 1): 2.93 µM (active)
- IC50 [18]: 937 nM (active)
- EC50 (BJ [19]): 9.02 µM (active)
- EC50 (BJ [20]): 1.23 µM (active)
- EC50 (BJ [21]): 4.38 µM (active)
- CC50 (Vero [22]): 2.83 µM (active)
- CC50 [23]: 9.24 µM (active)
- CC50 [24]: 2.88 µM (active)
- EC50 (BJ [25]): 2.07 µM (active)
- CC50 [26]: 822 nM (active)
- IC50 (cells): 3.01 µM (active)
- AC50 (INS1): 584 nM (active)
- IC50 (Vero [27]): > 25 µM (active)

Compound: Brc1ccc(-c2nnc3ccc(N4CCN(c5ccccc5)CC4)nn23)cc1
- IC50 (Bcl-2-related protein A1 [28]): > 100 µM (not active)
- IC50 (Bcl-2-related protein A1 [29]): 8.88 µM (active)
